Columns and labels:
COX-2 = biological target: T1, COX-2 (Homo sapiens, UniProt P35354); experiment: Human whole blood assay, COX-2 inhibition (PGE2 ELISA after LPS); assay type: cell-based; details: LPS 24 h
T1 construct: incubation of human blood with lipopolysaccharide (LPS), which induces COX-2 production in the blood; endogenous in cells; host or cells: fresh human whole blood from volunteers, treated with aspirin and then LPS
T1 sequence (P35354 18-604): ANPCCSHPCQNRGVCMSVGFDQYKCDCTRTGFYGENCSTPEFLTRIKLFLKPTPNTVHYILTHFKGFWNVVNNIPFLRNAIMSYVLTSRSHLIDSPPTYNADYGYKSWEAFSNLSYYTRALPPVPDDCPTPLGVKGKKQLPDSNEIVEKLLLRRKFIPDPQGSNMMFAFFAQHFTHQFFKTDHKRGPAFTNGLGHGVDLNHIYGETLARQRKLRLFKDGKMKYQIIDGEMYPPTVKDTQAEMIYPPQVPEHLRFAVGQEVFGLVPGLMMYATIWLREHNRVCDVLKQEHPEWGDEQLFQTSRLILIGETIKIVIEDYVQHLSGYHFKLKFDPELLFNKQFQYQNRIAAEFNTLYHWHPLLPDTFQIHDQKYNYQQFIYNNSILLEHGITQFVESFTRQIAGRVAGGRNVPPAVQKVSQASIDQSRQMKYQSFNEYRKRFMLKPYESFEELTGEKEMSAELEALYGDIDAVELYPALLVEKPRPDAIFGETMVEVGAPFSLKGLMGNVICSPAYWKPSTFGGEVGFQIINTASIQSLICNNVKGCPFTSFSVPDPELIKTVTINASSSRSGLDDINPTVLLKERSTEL
Description: In Vivo Evaluation of Cyclooxygenase-2 (COX-2) Inhibition Activity
The COX-2 inhibition activities of the compounds illustrated in the examples are determined by the following method.
Human whole blood provides a protein and cell rich milieu appropriate for the study of biochemical efficacy of anti-inflammatory compounds such as selective COX-2 inhibitors. […] This is correlating with the observation that COX-2 inhibitors have no effect on prostaglandin E2 (PGE2) production in normal blood. These inhibitors are active only after incubation of human blood with lipopolysaccharide (LPS), which induces COX-2 production in the blood.
Fresh blood is collected in tubes containing potassium EDTA by vein puncture from make volunteers. The subjects should have no apparent inflammatory conditions and not taken NSAIDs for at least 7 days prior to blood collection. Blood is treated with aspirin in vitro (10 μg/ml, at time zero) to inactivate COX-1, and then with LPS (10 μg/ml) along with test agents or vehicle. The blood is incubated for 24 h at 37° C., after which the tubes are centrifuged, the plasma is separated and stored at −80° C. (J. Pharmacol. Exp. Ther, 271, 1705, 1994; Proc. Natl. Acad. Sci. USA., 96, 7563, 1999). The plasma is assayed for PGE2 using Cayman ELISA kit as per the procedure outlined by the manufacturer (Cayman Chemicals, Ann Arbor, USA).

IL-6 = IL-6 production in LPS-stimulated human whole blood; assay type: cell-based; details: LPS 4 h
Description: This assay determines the effect of test compounds on the production of IL-6 from human whole blood. Compounds are tested for their ability to downregulate the production of IL-6 in activated whole blood. The test compounds are pre-incubated for 15 minutes at 37° C. and then stimulated with Lipopolysaccharide (Salmonella abortus equi, 1 μg/ml) for 4 h at 37° C. in 5% CO2. The levels of Interleukin-6 are estimated using Enzyme linked Immunosorbent assay performed in a 96 well format as per the procedure of the manufacturer (Cayman Chemical, Ann Arbor, USA).

TNF-α = TNF-α production in LPS-stimulated human whole blood; assay type: cell-based; details: LPS 4 h
Description: Tumor Necrosis Factor Alpha (TNF-α)
This assay determines the effect of test compounds on the production of TNF-α in human whole blood. TNF-α assay is carried out as described by Armin hatzelmann and Christian Schudt (J Pharm Exp Ther 297, 261, 2001). Compounds are tested for their ability to inhibit the activity of TNF-α in human whole blood. The test compounds are pre-incubated for 15 minutes at 37° C. and then stimulated with Lipopolysaccharide (Salmonella abortus equi, 1 μg/ml) for 4 h at 37° C. in 5% CO2. The levels of TNF-α are estimated using Enzyme linked Immunosorbent assay performed in a 96 well format as per the procedure of the manufacturer (Cayman Chemical, Ann Arbor, USA).

NCI-H460 = experiment: DTP human tumor cell line one-dose prescreen, NCI-H460; assay type: cell-based; details: 48 hours, Alamar Blue, test/control, read-out: Percentage growth Lung NCI-H460
Description: (§1) DTP Human Tumor Cell Line Screen
(§2) Methodology of the In Vitro Cancer Screen
(§3) The current assay utilizes a 384 well plate format and fluorescent staining technologies resulting in greater screening capacity for testing of synthetic samples.
(§4) The cell lines of the cancer-screening panel are grown in RPMI 1640 medium containing 5% fetal bovine serum and 2 mM L-glutamine. For a typical screening experiment, cells are inoculated into 96 well microtiter plates in 100 μL. After cell inoculation, the microtiter plates are incubated at 37° C., 5% CO2, 95% air and 100% relative humidity for 24 h prior to addition of experimental drugs. The cells are plated a densities of 5000 cells/well (MCF7), 1000 cells/well (NC1—H460), and 7500 cells/well (SF-268) to allow for varying doubling time of the cell lines. Each plate contains all three cell lines, a series of dilutions of standard agents, total kill wells and appropriate controls. Plates are incubated under standard conditions for 24 hours prior to addition of experimental compounds or extracts.
(§5) Addition of Experimental Agents (Pure Compounds)
(§6) Experimental compounds are solubilized in dimethyl sulfoxide (DMSO) at 400-times the desired maximum test concentration (maximum final DMSO concentration of 0.25%) and stored frozen. Compounds are then diluted with complete media with 0.1% gentamicin sulfate (5 μl of test sample in 100% DMSO is added to 565 μl of complete medium). 20 μl of this solution is then dispensed into test wells containing 50 μl of cell suspension to yield a test concentration of 1.00E-04M.
(§7) Two standard drugs, meaning that their activities against the cell lines are well documented, are tested against each cell line: NSC 19893 (5-FU) and NSC 123127 (Adriamycin).
(§8) After compound addition, plates are incubated at standard conditions for 48 hours, 10 μl/well Alamar Blue is added and the plates are incubated for an additional 4 hours. Fluorescence is measured using an excitation wavelength of 530 nm and an emission wavelength of 590 nm.
(§9) Calculation of Percent Test Cell Growth/Control (Untreated) Cell Growth (T/C)
(§10) Percent growth is calculated on a plate-by-plate basis for test wells relative to control wells. Percent Growth is expressed as the ratio of fluorescence of the test well to the average fluorescence of the control wells x 100.

SF-268 = experiment: DTP human tumor cell line one-dose prescreen, SF-268; assay type: cell-based; details: 48 hours, Alamar Blue, test/control, read-out: Percentage growth CNS SF-268
Description: as §1, §2, §3, §4, §5, §6, §7, §8, §9, §10

MCF-7 = experiment: DTP human tumor cell line one-dose prescreen, MCF-7; assay type: cell-based; details: MCF7, 48 hours, Alamar Blue, test/control, read-out: Percentage growth Breast MCF-7
Description: as §1, §2, §3, §4, §5, §6, §7, §8, §9, §10

Male Wistar rats = experiment: Rat carrageenan paw edema test; assay type: in vivo; details: 5 mg/kg body weight, oral, paw volume 3 hours after carrageenan, read-out: Rat Paw Edema model % inhibition
Description: Rat Carrageenan Paw Edema Test
The carrageenan paw edema test is performed as described by Winter et al (Proc. Soc. Exp. Biol. Med, 111, 544, 1962). Male Wistar rats are selected and the body weights are equivalent within each group. The rats are fasted for eighteen hours with free access to water. The rats are dosed orally with the test compound suspended in vehicle containing 0.5% methylcellulose. The control rats are administered the vehicle alone. After an hour, the rats are injected with 0.1 ml of 1% Carrageenan solution in 0.9% saline into the sub-plantar surface of the right hind paw. Paw volume is measured using water plethysmograph before and after 3 hours of carrageenan injection. The average of foot swelling in drug treated animals is compared with that of control animals. Anti-inflammatory activity is expressed as the percentage inhibition of edema compared with control group [Arzneim-Forsch/Drug Res., 43(I), 1, 44-50,1993; Ottemess and Bliven, Laboratory Models for Testing NSAIDs, In Non-Steroidal Anti-Inflammatory Drugs, (J. Lombardino, ed. 1985)]. In order to evaluate their role on the ulcer formation, the animals are sacrificed and the stomach is taken out and flushed with 1% formalin. The stomach is opened along the greater curvature. The haemorrhagic puncta and sulci are identified microscopically and images are captured. The stomach lesions are calculated.

Row | inhibition at 0.25 µM (COX-2) | melting point | SMILES | inhibition at 0.25 µM (IL-6) | activity at 100 µM (NCI-H460) | activity at 100 µM (MCF-7) | further results
1 | 16.2% | 204 to 205 °C | CSc1nc(-c2ccccc2)n(-c2ccc(F)cc2)c(=O)c1C#N [Example 17, 5-cyano-1-(4-fluorophenyl)-4-(methylthio)-2-phenyl-6-oxo-1,6-dihydropyrimidine] | 16.2% | – | – | inhibition at 10 µM (TNF-α): 47.4%
2 | – | 212 to 215 °C | CSc1ccc(-n2c(-c3cccnc3)nc(SC)c(C#N)c2=O)cc1 [Example 27, 5-cyano-4-(methylthio)-1-[4-(methylthio)phenyl]-6-oxo-2-pyridin-3-yl-1,6-dihydropyrimidine] | – | 14% | 23% | activity at 100 µM (SF-268): 51%
3 | – | 151 to 155 °C | CCOC(=O)c1c(SC)nc(-c2ccc(SC)cc2)n(-c2ccc(F)cc2)c1=O [Example 42, ethyl 1-(4-fluorophenyl)-4-(methylthio)-2-[4-(methylthio)phenyl]-6-oxo-1,6-dihydropyrimidine-5-carboxylate] | – | – | – | inhibition at 0.1 µM (COX-2; 0.1 μM): 37.6%; inhibition at 0.1 µM (IL-6; 0.1 μM): 59.7%; inhibition at 0.1 µM (TNF-α; 0.1 μM): 49.6%
4 | – | 227 to 229 °C | CSc1ccc(-n2c(-c3ccncc3)nc(SC)c(C#N)c2=O)cc1 [Example 28, 5-cyano-4-(methylthio)-1-[4-(methylthio)phenyl]-6-oxo-2-pyridin-4-yl-1,6-dihydropyrimidine] | – | 20% | 48% | activity at 100 µM (SF-268): 63%
5 | – | 214 to 216 °C | COc1ccc(-n2c(-c3ccc(SC)cc3)nc(SC)c(C#N)c2=O)cc1 [Example 16, 5-cyano-1-(4-methoxyphenyl)-4-(methylthio)-2-[4-(methylthio)phenyl]-6-oxo-1,6-dihydropyrimidine] | – | 95% | 90% | inhibition at 10 µM (TNF-α): 59.8%
6 | 7.67% | 230 to 233 °C | CSc1ccc(-n2c(-c3ccc(C)cc3)nc(SC)c(C#N)c2=O)cc1 [Example 20, 5-cyano-2-(4-methylphenyl)-4-(methylthio)-1-[4-(methylthio)phenyl]-6-oxo-1,6-dihydropyrimidine] | – | – | – | inhibition at 1 µM (TNF-α): 61.4%
7 | – | 166 to 169 °C | CCOC(=O)c1c(SC)nc(-c2ccc(F)cc2)n(-c2ccc(SC)cc2)c1=O [Example 43, ethyl 2-(4-fluorophenyl)-4-(methylthio)-1-[4-(methylthio)phenyl]-6-oxo-1,6-dihydropyrimidine-5-carboxylate] | 10.4% | 79% | 68% | inhibition at 1 µM (COX-2; 1 μM): 27.5%; inhibition at 1 µM (TNF-α): 36.4%
8 | 36.5% | 245 to 247 °C | CSc1nc(-c2ccc(S(C)(=O)=O)cc2)n(-c2ccc(C)c(C)c2)c(=O)c1C#N [Example 12, 5-cyano-1-(3,4-dimethylphenyl)-2-[4-(methylsulfonyl)phenyl]-4-(methylthio)-6-oxo-1,6-dihydropyrimidine] | 28.7% | – | – | inhibition in vivo at 5 mg/kg (Male Wistar rats): 41.2%; inhibition at 0.25 µM (TNF-α): 27.2%
9 | – | 221 to 227 °C | CSc1nc(-c2ccccn2)n(-c2ccc(F)cc2)c(=O)c1C#N [Example 29, 5-cyano-1-(4-fluorophenyl)-4-(methylthio)-6-oxo-2-pyridin-2-yl-1,6-dihydropyrimidine] | – | 23% | 80% | activity at 100 µM (SF-268): 92%
10 | 31.1% | 211 to 212 °C | CSc1nc(-c2ccc(S(C)(=O)=O)cc2)n(-c2ccc(C(C)C)cc2)c(=O)c1C#N [Example 11, 5-cyano-1-(4-isopropylphenyl)-2-[4-(methylsulfonyl)phenyl]-4-(methylthio)-6-oxo-1,6-dihydropyrimidine] | 70.8% | – | – | inhibition in vivo at 5 mg/kg (Male Wistar rats): 63.8%; inhibition at 0.25 µM (TNF-α): 63.8%
11 | 72.1% | 268 to 271 °C | CNc1nc(-c2ccc(SC)cc2)n(-c2ccc(C)cc2)c(=O)c1C#N [Example 54, 5-cyano-4-(methylamino)-1-(4-methylphenyl)-2-[4-(methylthio)phenyl]-6-oxo-1,6-dihydropyrimidine] | – | – | – | inhibition at 1 µM (IL-6; 1 μM): 15.5%; inhibition at 1 µM (TNF-α): 15.6%
